For assay [1], the target named is human JAK2 (a.a. 828-1132) (Homo sapiens (Human), UniProt O60674). The assay is described as follows: In vitro JAK kinase assay (HTRF, phosphorylation of biotinylated peptide). As to conditions: for IC50: at Km ATP (30 μM ATP for Jak2). The class given is biochemical. How it is done:
(§1) The compounds of the invention were tested for inhibitory activity of JAK targets according to the following in vitro assay described in Park et al., Analytical Biochemistry 1999, 269, 94-104. The catalytic domains of human JAK1 (a.a. 837-1142), JAK2 (a.a. 828-1132) and JAK3 (a.a. 781-1124) with an N-terminal His tag were expressed using baculovirus in insect cells and purified. The catalytic activity of JAK1, JAK2 or JAK3 was assayed by measuring the phosphorylation of a biotinylated peptide. The phosphorylated peptide was detected by homogenous time resolved fluorescence (HTRF). […] The ATP concentration in the reactions was 90 μM for Jak1, 30 μM for Jak2 and 3 μM for Jak3. Reactions were carried out at room temperature for 1 hr and then stopped with 20 μL 45 mM EDTA, 300 nM SA-APC, 6 nM Eu-Py20 in assay buffer (Perkin Elmer, Boston, Mass.). Binding to the Europium labeled antibody took place for 40 minutes and HTRF signal was measured on a Fusion plate reader (Perkin Elmer, Boston, Mass.).
For orientation: In TR-FRET formats the signal depends on donor and acceptor labels being close together.

The target in assay [2] is human JAK1 (a.a. 837-1142) (Homo sapiens, UniProt P23458). The description is as above. The class given is biochemical. As to conditions: at Km ATP (90 μM ATP for Jak1). As to the method:
as §1

Each structure is given as a SMILES string. Counter-ions that a name gives are not always drawn.

We go through five compounds from US9216984B2, “3-[4-(7H-pyrrolo[2,3-D]pyrimidin-4-yl)-1H-pyrazol-1-yl]octane—or heptane-nitrile as JAK inhibitors” (Incyte Corporation, priority 2009, dated 2015).

Chain of human JAK2 (a.a. 828-1132) (O60674 828-1132): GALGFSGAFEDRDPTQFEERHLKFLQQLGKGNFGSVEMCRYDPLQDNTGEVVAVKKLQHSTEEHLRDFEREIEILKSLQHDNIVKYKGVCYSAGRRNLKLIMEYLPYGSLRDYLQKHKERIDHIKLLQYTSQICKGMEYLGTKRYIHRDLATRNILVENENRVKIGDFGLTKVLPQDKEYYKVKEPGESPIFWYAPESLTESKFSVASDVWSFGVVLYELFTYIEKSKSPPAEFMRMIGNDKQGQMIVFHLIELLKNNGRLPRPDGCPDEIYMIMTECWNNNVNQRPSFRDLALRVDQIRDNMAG

One may read the IC50 as the midpoint of a concentration-inhibition curve. A low value points to higher potency. Turning to `CCCCC(CC#N)n1cc(-c2ncnc3[nH]ccc23)cn1` (single isomer, unassigned) [Example 2, first peak (free base), 3-[4-(7H-pyrrolo[2,3-d]pyrimidin-4-yl)-1H-pyrazol-1-yl]heptanenitrile], the results for the IC50 in assay [1] and in assay [2] were 1.4 nM and 1.8 nM, respectively.
For `CCCCCC(CC#N)n1cc(-c2ncnc3[nH]ccc23)cn1.O=P(O)(O)O` (single isomer, unassigned) [Example 1, second peak (phosphate salt), 3-[4-(7H-pyrrolo[2,3-d]pyrimidin-4-yl)-1H-pyrazol-1-yl]octanenitrile phosphoric acid salt], the “JAK2 activity compared with the other form/enantiomer (in words)” value in assay [1] was “similarly active”.
`CCCCCC(CC#N)n1cc(-c2ncnc3[nH]ccc23)cn1` (single isomer, unassigned) [Example 1, first peak (free base), 3-[4-(7H-pyrrolo[2,3-d]pyrimidin-4-yl)-1H-pyrazol-1-yl]octanenitrile]: the “JAK2 activity compared with the other form/enantiomer (in words)” value in assay [1] is “not as potent as the other enantiomer”.
As to `CCCCC(CC#N)n1cc(-c2ncnc3[nH]ccc23)cn1` (single isomer, unassigned) [Example 2, second peak (free base), 3-[4-(7H-pyrrolo[2,3-d]pyrimidin-4-yl)-1H-pyrazol-1-yl]heptanenitrile], the results for the IC50 in assay [1] and in assay [2] were 0.3 nM and 0.57 nM, respectively.
Regarding `CCCCC(CC#N)n1cc(-c2ncnc3[nH]ccc23)cn1` (single isomer, unassigned) [Example 2, second peak (phosphate salt), 3-[4-(7H-pyrrolo[2,3-d]pyrimidin-4-yl)-1H-pyrazol-1-yl]heptanenitrile phosphoric acid salt], the results for the IC50 in assay [1] and in assay [2] were 0.65 nM and 2 nM, respectively.
